Measured values: PubChem BioAssay (NCI)
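The compound was tested at five concentrations on cells cultured in 96-well plates, with a 48-hour exposure period. GI50 marks 50% less growth. The concentration for full growth arrest is given as TGI.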

What was measured:
Test in all cases: growth of human tumour cells (NCI), 48 h
HCC-2998 colon = tested on: HCC-2998 colon
NCI-H460 lung = tested on: NCI-H460 lung
COLO 205 colon = tested on: COLO 205 colon
MDA-MB-435 = tested on: MDA-MB-435
RXF 393 renal = tested on: RXF 393 renal
OVCAR-8 ovarian = tested on: OVCAR-8 ovarian
MALME-3M melanoma = tested on: MALME-3M melanoma
MOLT-4 leukemia = tested on: MOLT-4 leukemia
LOX IMVI melanoma = tested on: LOX IMVI melanoma
EKVX NSCLC = tested on: EKVX NSCLC

SMILES | GI50 (HCC-2998 colon) | TGI (HCC-2998 colon) | GI50 (NCI-H460 lung) | TGI (NCI-H460 lung) | GI50 (COLO 205 colon) | TGI (COLO 205 colon) | GI50 (MDA-MB-435) | TGI (MDA-MB-435) | GI50 (RXF 393 renal) | TGI (RXF 393 renal) | GI50 (OVCAR-8 ovarian) | TGI (OVCAR-8 ovarian) | GI50 (MALME-3M melanoma) | TGI (MALME-3M melanoma) | GI50 (MOLT-4 leukemia) | TGI (MOLT-4 leukemia) | GI50 (LOX IMVI melanoma) | TGI (LOX IMVI melanoma) | GI50 (EKVX NSCLC) | TGI (EKVX NSCLC)
CC(=O)/C=C/c1cn(C(=O)OC(C)(C)C)c2ccc(Br)cc12 | 18 µM | 37.4 µM | 17 µM | 36.4 µM | 19.5 µM | 42.1 µM | 9.97 µM | 25.9 µM | 15.6 µM | 37 µM | 16.2 µM | 39 µM | 52.1 µM | > 89.2 µM | 41.6 µM | > 100 µM | 10.7 µM | 25.2 µM | 24.5 µM | 84.3 µM
O=C(O)c1ccc(C(=O)c2ccccc2)c(C(=O)O)c1 |  | > 100 µM |  | > 100 µM |  | > 100 µM |  | > 100 µM |  | > 100 µM |  | > 100 µM |  | > 100 µM |  | > 100 µM |  | > 100 µM |  | > 100 µM
O=[N+]([O-])c1ccc(C=Cc2ccccc2)cc1.[C-]#[O+].[C-]#[O+].[C-]#[O+].[Cr] | > 100 µM | > 100 µM | 3.37 µM | 89.7 µM | 23.9 µM | > 100 µM | 4.81 µM | > 100 µM | 11.8 µM | > 100 µM | 9.77 µM | > 100 µM | > 100 µM | > 100 µM | 5.13 µM | > 100 µM | 31.3 µM | > 100 µM | 2.93 µM | 30 µM
CN[C@@H](C)C(=O)N[C@H](C(=O)N1CCC[C@H]1C(=O)Nc1sc(-c2ncco2)nc1-c1ccccc1)C1CCCCC1 | 25.7 µM | 65.7 µM | 37.7 µM | > 100 µM | 18.7 µM | 37.9 µM | 26.3 µM | > 87.9 µM | 8.51 µM | 32.3 µM | 17.2 µM | 42.7 µM | 3.91 µM | 19.4 µM | 29.2 µM | 88.1 µM | 18.5 µM | 34.8 µM | 42.9 µM | > 100 µM
O=S(=O)(Nc1cc(Sc2cccc3cccnc23)c(O)c2ccccc12)c1ccc(F)cc1 | 4.8 µM | 15.6 µM | 0.59 µM | 11 µM | 1.69 µM | 3.51 µM | 2.27 µM | 8.66 µM | 1.97 µM | 5.43 µM | 0.645 µM | 10.3 µM | 1.98 µM | 4.94 µM | 0.432 µM | 3.21 µM | 0.624 µM | 2.82 µM | 1.41 µM | 6.5 µM
Cc1ccc(/C=N\NC(=O)c2[nH]c3ccc(F)cc3c2-c2ccccc2)cc1 | 0.0321 µM | 16.5 µM | 0.0345 µM | > 37.9 µM | 0.0186 µM | 0.0343 µM | 0.0217 µM | 0.0495 µM | 0.0305 µM | 1.49 µM | 0.0389 µM | > 100 µM | 0.0572 µM | > 80.9 µM | 0.0421 µM | > 39.5 µM | 0.0339 µM | > 100 µM | 0.0691 µM | > 100 µM
